Assays:
TLR8 [1] = target: T1, TLR8 (Homo sapiens, UniProt Q9NR97); test: ORN06-induced signaling in HEK-Blue hTLR8 cell line; assay type: cell-based
T1 construct: host or cells: HEK-Blue hTLR8 (HEK293-derived SEAP reporter cells)
T1 sequence (Q9NR97 27-1041): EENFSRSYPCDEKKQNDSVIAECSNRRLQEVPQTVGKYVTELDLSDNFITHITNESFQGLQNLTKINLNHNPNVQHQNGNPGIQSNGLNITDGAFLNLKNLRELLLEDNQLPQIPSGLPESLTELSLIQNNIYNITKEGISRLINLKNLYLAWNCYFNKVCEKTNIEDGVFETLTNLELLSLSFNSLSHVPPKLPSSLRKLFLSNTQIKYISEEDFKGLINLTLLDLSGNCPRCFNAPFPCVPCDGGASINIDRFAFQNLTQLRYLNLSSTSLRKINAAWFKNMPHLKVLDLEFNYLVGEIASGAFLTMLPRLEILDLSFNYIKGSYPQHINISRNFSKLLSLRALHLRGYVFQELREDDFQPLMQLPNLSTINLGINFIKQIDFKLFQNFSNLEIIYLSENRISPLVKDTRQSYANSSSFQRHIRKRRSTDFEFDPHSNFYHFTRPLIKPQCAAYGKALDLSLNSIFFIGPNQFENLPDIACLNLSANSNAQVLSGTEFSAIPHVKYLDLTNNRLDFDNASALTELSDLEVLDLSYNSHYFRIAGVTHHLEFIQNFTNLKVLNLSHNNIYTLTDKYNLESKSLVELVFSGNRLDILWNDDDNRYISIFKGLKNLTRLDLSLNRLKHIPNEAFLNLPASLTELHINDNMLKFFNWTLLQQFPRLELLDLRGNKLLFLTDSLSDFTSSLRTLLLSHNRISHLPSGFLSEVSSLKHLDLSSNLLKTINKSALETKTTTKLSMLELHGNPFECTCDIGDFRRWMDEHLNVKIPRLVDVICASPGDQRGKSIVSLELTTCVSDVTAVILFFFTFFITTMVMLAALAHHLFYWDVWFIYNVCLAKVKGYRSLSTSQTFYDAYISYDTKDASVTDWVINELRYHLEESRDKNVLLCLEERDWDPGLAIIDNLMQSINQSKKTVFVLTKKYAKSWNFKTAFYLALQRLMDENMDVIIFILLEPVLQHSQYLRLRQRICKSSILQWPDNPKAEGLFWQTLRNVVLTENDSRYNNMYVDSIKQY
Protocol: HEK Blue hTLR8 cells or HEK Blue hTLR7 cells were cultured in DMEM medium supplemented with 10% fetal bovine serum, penicillin (100 U/mL) and streptomycin ([…]). Thereafter, cells were seeded in 96-well plate (45,000 cells per well), and were cultured for 24 hours in a humidified incubator (37° C., 5% CO2).
After 24 hours, the supernatant and suspending cells were aspirated and replaced with fresh serum-free DMEM. Cells were treated with 1 μg/mL of R848 (agonist of TLR7/8) or 5 μg/mL of ssRNA40/LyoVec or 5 μg/mL of ORN06/LyoVec (InvivoGen) and compounds with specified concentrations, and were placed in a humidified incubator (37° C., 5% CO2) for co-culture.
After 24 hours, 50 μL of the medium was aspirated from each well and then added to a new 96-well plate, followed by the addition of 50 μL of Quanti-Blue in each well and the incubation at 37° C. in darkness. Changes in color would occur in the […] within 60 minutes, and the absorbance was measured at 620 nm by using the multi-mode plate reader Vrioskan Flash. Inhibition rate (%)=[R848 (OD620)−Compound (OD620)]/[R848 (OD620)−Control (OD620)]×100%. Among these, the control group was only added with the same amount of cells. Finally, the software Prism 6.0 was utilized to plot a graph and calculate IC50 values. […]

HEK-Blue hTLR8 cell line = test: Toxicity test of compounds (CCK-8 cell viability); assay type: cell-based, human; design: key to WST1 (normalized toxicity effect): viability relative to control well (background-subtracted OD), 1 = control
Protocol: In the 96-well plate used for the above-mentioned activity test of compounds (remaining 50 μL of culture medium containing cells), 5 μL of CellCountingKit-8 (CCK-8) Supermix was added to each well. Note that the introduction of air bubbles into the wells should be avoided since the air bubbles would interfere with the detection of OD value.
The culture plate was incubated in an incubator for 1 to 4 hours,
The edge of the 96-well plate could be tapped gently before reading the plate, and then the absorbance at 450 nm was measured by using the multi-mode plate reader.
Cell viability (%) was determined using the following formula: cell viability (%)=([Compound well ([…])−Background well (OD450)]/[Control well ([…])−Background well (OD450)])×100%. Among these, the background well was only added with the medium and CCK-8 reagent, the control well was only added with the medium, cells, R848 and CCK-8, and the compound wells were added with the medium, cells, R848, compounds in different concentrations, and CCK-8.

TLR8 [2] = target: T1, TLR8; test: Specificity test in HEK-Blue TLR cell lines: TLR8; assay type: cell-based
Protocol: The selectivity of compounds for receptors in TLR family was tested in HEK-Blue cells overexpressing various TLRX (x=1 to 9) respectively. The steps of this test method were the same as those mentioned above in “Activity Test of Compounds”, except that the ligands corresponding to different TLRs were used to activate the downstream signaling in the corresponding cells. Among these, ploy (I:C) (20 μg/mL), LPS (40 ng/mL), Pam3CSK4 (100 ng/mL), Pam2CSK4 (100 ng/mL), flagellin (200 ng/mL), R848 (1 μg/mL) and ODN2006 (0.5 μM) were used to selectively activate HEK-Blue hTLR3-, hTLR4-, hTLR1/2-, hTLR2/6-, hTLR5-, hTLR7- and hTLR9-overexpressing cells, respectively.

TLR8 [3] = target: T1, TLR8; test: Inhibition of R848-induced signaling in HEK-Blue hTLR8 cell line (Quanti-Blue); assay type: cell-based
Procedure, shortened: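 HEK-Blue hTLR8 cells, 45,000 per well, cultured 24 h then switched to serum-free DMEM; after a further 24 h, supernatant SEAP read with Quanti-Blue at 620 nm. Inhibition computed relative to R848 and untreated-cell OD620; IC50 from curve fit.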

[4] = HEK-Blue hTLR8 cell line (FIG. 1, FIG. 10)
[5] = HEK-Blue hTLR8 cell line, at a concentration of 100 μM (FIG. 12)

SMILES: CSc1nnc(CCCO)n1-c1cc(C)c(C)c(C)c1 [Compound 24, 3-(5-(methylthio)-4-(3,4,5-trimethylphenyl)-4H-1,2,4-triazole-3-yl)propan-1-ol]
- inhibitory effect on ORN06-induced signaling (TLR8 [1]; HEK-Blue hTLR8 cell line (FIG. 1)): excellent inhibitory effect
- toxicity in HEK-Blue hTLR8 cell line (HEK-Blue hTLR8 cell line; even at a concentration of 100 μM (FIG. 2)): did not cause significant toxicity
- specific inhibitory effect on HEK-Blue hTLR8 cell line (TLR8 [2]; at a concentration of 20 μM (FIG. 3)): specific inhibitory effect
- inhibitory effect on R848-induced signaling (TLR8 [3]; [4]): excellent inhibitory effect
- IC50 (TLR8 [3]; R848-induced signaling, HEK-Blue hTLR8 cell line, value ± standard deviation, at least triplicate): 30 ± 2 nM

SMILES: CCOCc1nc(I)c(-c2ccccc2)n1CC(C)(C)O [Compound 53, 1-[2-(ethoxymethyl)-4-iodo-5-phenyl-1H-imidazole-1-yl]-2-methylpropan-2-ol]
- synergistic activating effect on ORN06-induced signaling (TLR8 [1]; [5]): synergistic activating effect
- influence on cell viability (HEK-Blue hTLR8 cell line; HEK-Blue hTLR8 cells, under the test conditions (FIG. 10)): no influence on cell viability
- WST1 (normalized toxicity effect) (HEK-Blue hTLR8 cell line; normalized cell viability, HEK-Blue cell lines): 0.9 ± 0.2
- specific inhibitory effect on TLR8 signaling pathway (TLR8 [2]; at a concentration of 100 μM (FIG. 11)): specific inhibitory effect
- inhibitory effect on R848-induced signaling (TLR8 [3]; [4]): significant inhibitory effect
- inhibitory effect on R848-induced signaling (TLR8 [3]; [5]): significant inhibitory effect
- Remaining R848-induced TLR8 signaling (normalized activity; ligand+DMSO = 1, untreated = 0) (TLR8 [3]; HEK-Blue hTLR8 cell line, normalized, ligand+DMSO = 100% activity, untreated = 0%): 0.1 ± 0.1

From patent US20230002327A1, “SMALL-MOLECULE REGULATOR OF TLR8” (TSINGHUA UNIVERSITY, priority 2019, published 2023)
